≈ marks a conversion by molar mass, not a printed value. Entries after “also recorded” stand apart in the source; their conditions may differ. Like-named read-outs stand apart in the source and are kept apart here.
How the values were obtained:
[1] = system: Mycobacterium marinum (Mm) in infection of Dictyostelium discoideum (Mm-inf); assay: Anti-infective assay, growth of Mm during infection of Dd (Mm-inf, luminescence); format: cell-based; settings: for IC50: 72 h; for activity at 20 µM: vehicle = 1, baseline = 0, hit cut-off <0.5
[2] = system: Mycobacterium marinum in broth (Mm-broth); assay: Antibacterial assay, growth of Mm in broth (Mm-broth, luminescence); format: cell-based; settings: for activity on Mm in broth (in words): screen at 20 μM or dose-response curve; for normalized residual growth of Mm-broth: 20 μM, vehicle = 1, baseline = 0
[3] = system: Dictyostelium discoideum (Dd-inf); assay: microbe, parasite or virus in culture; format: cell-based; settings: for normalized residual growth of Dd-inf: 20 μM, vehicle = 1, baseline = 0; for IC50: Dictyostelium discoideum, 72 h, read-out: IC50 Dd-inf (Dd growth)
Dd Ax2(ka) cells = assay: Anti-infective assay with high-content microscopy, area of uninfected and infected Dd; settings: 20, 10, 2.5 μM, up to 48 h
Method: (§1) To monitor both the host and pathogen during the course of infection in a quantitative manner, Dd Ax2(ka) cells expressing mCherry knocked-in at the act5 locus ([Paschke et al., 2019]) were infected as described above with Mm WT stably expressing GFP (Msp:12-GFP). As described above, the day before the experiment, 10^7 amoebae were plated in a 10 cm Petri dish. On the day of the experiment, infection was performed, as described above, in HL5-C at MOI 25 by spinoculation. This was followed by eight washes in HL5-C to clear a maximum of non-internalized bacteria. The infected amoebae were detached mechanically and resuspended in HL5-C with 0.75 U/mL penicillin and 0.75 μg/mL of streptomycin (Gibco). Compounds were diluted in HL5-C to a 10x stock of the final assay concentration and pre-plated in 20 μL into the respective wells of a 96-well μ-plate (iBIDI 96-well μ-plate, 89,626). Subsequently, 7,500 cells per well were added in a volume of 180 μL. Every condition has been plated in at least three technical replicates and at least three biological replicates. The 96-well plate was sealed with a gas permeable seal (4titude, 4ti-0516/96) and centrifuged briefly.
(§2) Microscopy images were acquired at 25°C with a 40X plan Apo objective at selected time points over 48 h on the ImageXpress Micro C® automated microscope (Molecular Devices) in wide field mode. Focus was obtained automatically by autofocusing on the well bottom and plate bottom, at every well and every time point. In a grid of 4 × 5, 20 images per well, corresponding to a range of 500–6,000 cells, have been taken using the Texas-Red channel for Dd expressing mCherry and FITC channel for Mm expressing GFP in each experiment. Image analysis was performed using MetaXpress Custom Module editor software. Objects were effectively segmented by size and intensity. More precisely, amoebae were segmented using a “find blob module” using the Texas-Red channel. To segment the bacteria, the FITC image was first subjected to a light deconvolution with a top hat filter and then segmented using a “find blob module.” Intracellular bacteria and infected amoebae were determined by associating the mask of the amoebae and the bacteria. Several parameters such as intracellular and extracellular bacterial area sum, amoebae area sum, averaged and integrated fluorescence intensity and feature counts of bacteria and amoeba were extracted. The growth curves for the area sum of uninfected amoebae, infected amoebae and intracellular bacteria of independent biological replicates were averaged and plotted using GraphPad Prism (Version 8.0.1).
(§3) Both uninfected Dd and Dd infected with Mm were treated with 20, 10 or 2.5 μM of 17 or 19 and the infection was monitored by collecting microscopy images at five time points for up to 48 h.

Mm = assay: Checkerboard assay for synergy with antibiotics
From the text: We tested this compound for synergy with rifampicin and isoniazid in a checkerboard assay and additionally tested for synergy between rifampicin and isoniazid.

intracellular Mm = assay: Anti-infective assay with high-content microscopy, area of intracellular Mm; settings: 20, 10, 2.5 μM, up to 48 h
Method: as §1, §2, §3

[4] = read-out: IC50 Mm-inf, 72 h, AUC of luminescence normalized to vehicle, 4PL regression
[5] = at respective maximal tested concentration
[6] = 20 μM, read-out: normalized residual growth of Mm-inf
[7] = AUC of luminescence normalized to vehicle, 4PL regression, read-out: IC50 Mm-inf
[8] = read-out: normalized residual growth of Mm-inf, 20 μM

Compound: COc1nc2ccc(Br)cc2cc1[C@@H](c1ccccc1)[C@@](O)(CCN(C)C)c1cccc2ccccc12 [bedaquiline]
- IC50 [1, 4]: 4 µM
- activity on Mm-inf (in words) [1, 5]: sterilizing activity
- IC50 ([2]; Mycobacterium marinum, 72 h, read-out: IC50 Mm-broth): 1.6 µM
- MIC ([2]; Mycobacterium marinum, 72 h, read-out: MIC Mm-broth): 3.3 µM (≈ 1.83 µg/mL)
- activity on Mm-broth (in words) [2, 5]: sterilizing activity

Compound: Oc1ccc(/C=C/c2cc(O)cc(O)c2)cc1 [compound 1, resveratrol]
- activity on Mm-inf (in words) ([1]; dose-response curve): lack of activity

Compound: COc1cc(/C=C/c2ccc(O)cc2)cc(OC)c1 [compound 2, pterostilbene]
- activity at 20 µM [1, 6]: 28%
- IC50 [1, 7]: 19.8 µM
- activity on Mm-inf (in words) ([1]; dose-response curve): validated anti-infectives without antibiotic properties
- normalized residual growth of Dd-inf [3]: –0.16
- IC50 ([3]; dose-response curve): 11.1 µM
- activity on Mm in broth (in words) [2]: inactive on Mm in broth

Compound: COc1cc(O)cc(/C=C/c2ccc(O)cc2)c1 [compound 3, pinostilbene]
- activity on Mm-inf (in words) ([1]; dose-response curve): active on Mm-inf, at high concentrations (>20 μM)

Compound: COc1cc(/C=C/c2cc(O)cc(O)c2)ccc1O [compound 4, isorhapontigenin]
- activity on Mm-inf (in words) ([1]; dose-response curve): lack of activity

Compound: Oc1ccc(C2Oc3ccc(C=Cc4cc(O)cc(O)c4)cc3C2c2cc(O)cc(O)c2)cc1 (stereo not drawn) [compound 11, trans-δ-viniferin]
- activity at 20 µM [1, 6]: 110%
- normalized residual growth of Mm-broth [2]: 1

Compound: COc1cc(OC)cc(C2c3cc(C=Cc4cc(O)cc(O)c4)ccc3OC2c2ccc(O)cc2)c1 (stereo not shown) [compound 17]
- IC50 [1, 7]: 18.1 µM
- activity on Mm-inf (in words) ([1]; at 20 μM): passed again the 0.5 cut-off
- activity on Mm-inf (in words) ([1]; dose-response curve): dose-dependent activity; also recorded: validated anti-infectives without antibiotic properties
- IC50 ([1]; read-out: IC50 Mm-inf, AUC of luminescence normalized to vehicle, 4PL regression): 18.9 µM
- activity at 20 µM [1, 8]: 34%
- growth of infected Dd (segmented area, in words) (Dd Ax2(ka) cells): this effect was weaker
- normalized residual growth of Dd-inf [3]: 0.91
- synergy with rifampicin and isoniazid (in words) (Mm): did not find striking synergy
- growth of intracellular Mm (segmented area, in words) (intracellular Mm): this effect was weaker
- activity on Mm in broth (in words) [2]: no activity on Mm in broth; also recorded: without antibiotic activity; also recorded: did not show any growth inhibition

Compound: COc1cc(C=Cc2ccc3c(c2)C(c2cc(O)cc(O)c2)C(c2ccc(O)cc2)O3)cc(OC)c1 (stereo not shown) [compound 19]
- IC50 [1, 7]: 9 µM
- activity on Mm-inf (in words) ([1]; at 20 μM): passed again the 0.5 cut-off
- activity on Mm-inf (in words) ([1]; dose-response curve): dose-dependent activity; also recorded: validated anti-infectives without antibiotic properties
- activity at 20 µM [1, 8]: -32%
- growth of infected Dd (segmented area, in words) (Dd Ax2(ka) cells): almost completely inhibited
- growth of uninfected Dd (segmented area, in words) (Dd Ax2(ka) cells): significantly reduced
- normalized residual growth of Dd-inf [3]: –0.22
- IC50 ([3]; dose-response curve): 12.1 µM
- lowest measured value of Dd-inf (normalized residual growth) ([3]; dose-response curve): −0.40
- growth of intracellular Mm (segmented area, in words) (intracellular Mm): almost completely inhibited
- activity on Mm in broth (in words) [2]: no activity on Mm in broth; also recorded: without antibiotic activity; also recorded: did not show any growth inhibition

Compound: COc1cc(C=Cc2ccc3c(c2)C(c2cc(OC)cc(OC)c2)C(c2ccc(O)cc2)O3)cc(OC)c1 (stereo not shown) [compound 21]
- activity at 20 µM [1, 6]: 140%
- normalized residual growth of Mm-broth [2]: 1

Compound: Oc1ccc([C@H]2Oc3ccc(/C=C\c4cc(O)cc(O)c4)cc3[C@@H]2c2cc(O)cc(O)c2)cc1 [compound 55]
- activity on Mm-inf (in words) ([1]; at 20 μM): inactive

Compound: COc1cc(OC)cc([C@H]2c3cc(/C=C\c4cc(O)cc(O)c4)ccc3O[C@@H]2c2ccc(O)cc2)c1 [compound 56]
- IC50 [1, 4]: 19.7 µM

Compound: COc1cc(/C=C\c2ccc3c(c2)[C@H](c2cc(O)cc(O)c2)[C@@H](c2ccc(O)cc2)O3)cc(OC)c1 [compound 57]
- IC50 [1, 4]: 9.8 µM

Compound: COc1cc(/C=C\c2ccc3c(c2)[C@H](c2cc(OC)cc(OC)c2)[C@@H](c2ccc(O)cc2)O3)cc(OC)c1 [compound 58]
- activity on Mm-inf (in words) ([1]; at 20 μM): inactive

From article PMC11443511, “Discovery of anti-infective compounds against Mycobacterium marinum after biotransformation of simple natural stilbenes by a fungal secretome” (Frontiers in Microbiology, 2024)
